Patent US20110160255A1, “INHIBITORS OF AKT ACTIVITY” (priority 2008, published 2011)

Target: T1, full length AKT1 (Homo sapiens, UniProt P31749)
T1 construct: His tag (from vector pFastBacHTb) (N); made in house; host or cells: Baculovirus, insect cells (virus made in Sf9, T. ni cells infected; the purification text says sf9 cells)
Assay: Full-length AKT enzyme assay (substrate phosphorylation, SPA)
Type: biochemical
Details: in at least one experimental run; pIC50 = -log(IC50), IC50 in molar units; 4 uM ATP, 10 nM activated enzyme; read-out: pIC50 against full length AKT1 (converted)
Source text: Full-length human AKT1 gene was amplified by PCR from a plasmid containing myristylated-AKT1-ER (gift from Robert T. Abraham, Duke University under MTA, described in Klippel et al. in Molecular and Cellular Biology 1998 Volume 18 p. 5699) using the 5′ primer: SEQ. ID NO: 2 5′ […] 3′ and the 3′ primer: SEQ. ID NO: 3 […] 3′. The 5′ primer included a BamHI site and the 3′ primer included an XhoI site for cloning purposes. The resultant PCR product was subcloned in pcDNA3 as a BamHI/XhoI fragment. A mutation in the sequence (TGC) coding for a Cysteine^25 was converted to the wild-type AKT1 sequence (CGC) coding for an Arginine^25 by site-directed mutagenesis using the QuikChange® Site Directed Mutagenesis Kit (Stratagene). The AKT1 mutagenic primer: SEQ. ID NO: 4 5′[…] and selection primer: SEQ. […] For expression/purification purposes, AKT1 was isolated as a BamHI/XhoI fragment and cloned into the BamHI/XhoI sites of pFastbacHTb (Invitrogen).
Expression was done using the BAC-to-BAC Baculovirus Expression System from Invitrogen (catalog #10359-016). […]
Compounds of the present invention were tested for AKT 1, 2, and 3 protein serine kinase inhibitory activity in substrate phosphorylation assays. […] Substrate phosphorylation was detected by the following procedure. […]

T1 sequence (P31749 whole entry): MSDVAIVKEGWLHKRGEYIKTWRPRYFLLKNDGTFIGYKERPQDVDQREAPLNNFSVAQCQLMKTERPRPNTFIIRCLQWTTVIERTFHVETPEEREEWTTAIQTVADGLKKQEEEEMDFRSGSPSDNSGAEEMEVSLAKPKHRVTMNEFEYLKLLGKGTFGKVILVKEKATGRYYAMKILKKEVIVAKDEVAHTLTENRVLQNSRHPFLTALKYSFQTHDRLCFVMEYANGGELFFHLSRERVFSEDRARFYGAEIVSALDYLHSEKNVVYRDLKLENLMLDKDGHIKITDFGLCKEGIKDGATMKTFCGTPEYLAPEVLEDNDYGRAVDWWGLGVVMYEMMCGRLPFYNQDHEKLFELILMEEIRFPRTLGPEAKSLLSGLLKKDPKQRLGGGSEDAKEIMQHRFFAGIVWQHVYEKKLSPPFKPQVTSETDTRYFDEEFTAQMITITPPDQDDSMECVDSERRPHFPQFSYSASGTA

`Cn1nccc1-c1nc(C(=O)N[C@H](CN)Cc2cccc(F)c2)cs1` [Example 1, N-{(1S)-2-amino-1-[(3-fluorophenyl)methyl]ethyl}-2-(1-methyl-1H-pyrazol-5-yl)-1,3-thiazole-4-carboxamide] gave an IC50 of 501 nM.
